Here are results for 22 compounds from ChEMBL document CHEMBL3392977, “Synthesis and biological evaluation of adamantane-based aminophenols as a novel class of antiplasmodial agents” (Bioorg Med Chem Lett, 2015).

Converted amounts (≈) assume the structure as drawn. Where only a bound is given, the exact number is not on record here.

The test system of data set [1] is Plasmodium falciparum. The data set can be described thus: Antiplasmodial activity against Plasmodium falciparum NF54 by SYBR Green-based method. Format: functional, organism-based.
Data set [2] has as its system Plasmodium falciparum. The experiment in a line: Antiplasmodial activity against multidrug-resistant Plasmodium falciparum K1 by SYBR Green-based method. Format: functional, organism-based.
Data set [3] can be described thus: Selectivity index, ratio of IC50 for human A549 cells to IC50 for Plasmodium falciparum. The data set is classed as toxicity, cell-based. Conditions: read-out: Ratio IC50.
The next data set concerns THP-1. The experiment in a line: Cytotoxicity against human THP1 cells. Format: cell-based.
Data set [4] in a line: Protein binding in human plasma. The data set is classed as ADME, cell-free.
The nature of data set [5]: Solubility of the compound […]. The data set is classed as physicochemical.
For a further data set, the system named is Liver microsome. The data set can be described thus: Clearance in human liver microsomes at 1 uM after 2 to 30 mins by LC-MS/MS analysis. Format: ADME. Background: Liver microsomes are vesicles of endoplasmic reticulum, rich in cytochrome P450 enzymes.
A short description of data set [6]: Octanol-water partition coefficient, log D by shake-flask method. The data set is classed as physicochemical.
Data set [7] is described as follows: Clearance in rat hepatocytes assessed per million cells at 1 uM after 5 to 120 mins by LC-MS/MS analysis. Format: ADME, cell-based, Hepatocyte. Particulars: read-out: CLH.
In the next data set the target is hERG (KCNH2) (Homo sapiens, UniProt Q12809). The experiment in a line: Inhibition of human ERG at 11.1 uM.
Sequence of hERG (KCNH2) (Q12809 whole entry): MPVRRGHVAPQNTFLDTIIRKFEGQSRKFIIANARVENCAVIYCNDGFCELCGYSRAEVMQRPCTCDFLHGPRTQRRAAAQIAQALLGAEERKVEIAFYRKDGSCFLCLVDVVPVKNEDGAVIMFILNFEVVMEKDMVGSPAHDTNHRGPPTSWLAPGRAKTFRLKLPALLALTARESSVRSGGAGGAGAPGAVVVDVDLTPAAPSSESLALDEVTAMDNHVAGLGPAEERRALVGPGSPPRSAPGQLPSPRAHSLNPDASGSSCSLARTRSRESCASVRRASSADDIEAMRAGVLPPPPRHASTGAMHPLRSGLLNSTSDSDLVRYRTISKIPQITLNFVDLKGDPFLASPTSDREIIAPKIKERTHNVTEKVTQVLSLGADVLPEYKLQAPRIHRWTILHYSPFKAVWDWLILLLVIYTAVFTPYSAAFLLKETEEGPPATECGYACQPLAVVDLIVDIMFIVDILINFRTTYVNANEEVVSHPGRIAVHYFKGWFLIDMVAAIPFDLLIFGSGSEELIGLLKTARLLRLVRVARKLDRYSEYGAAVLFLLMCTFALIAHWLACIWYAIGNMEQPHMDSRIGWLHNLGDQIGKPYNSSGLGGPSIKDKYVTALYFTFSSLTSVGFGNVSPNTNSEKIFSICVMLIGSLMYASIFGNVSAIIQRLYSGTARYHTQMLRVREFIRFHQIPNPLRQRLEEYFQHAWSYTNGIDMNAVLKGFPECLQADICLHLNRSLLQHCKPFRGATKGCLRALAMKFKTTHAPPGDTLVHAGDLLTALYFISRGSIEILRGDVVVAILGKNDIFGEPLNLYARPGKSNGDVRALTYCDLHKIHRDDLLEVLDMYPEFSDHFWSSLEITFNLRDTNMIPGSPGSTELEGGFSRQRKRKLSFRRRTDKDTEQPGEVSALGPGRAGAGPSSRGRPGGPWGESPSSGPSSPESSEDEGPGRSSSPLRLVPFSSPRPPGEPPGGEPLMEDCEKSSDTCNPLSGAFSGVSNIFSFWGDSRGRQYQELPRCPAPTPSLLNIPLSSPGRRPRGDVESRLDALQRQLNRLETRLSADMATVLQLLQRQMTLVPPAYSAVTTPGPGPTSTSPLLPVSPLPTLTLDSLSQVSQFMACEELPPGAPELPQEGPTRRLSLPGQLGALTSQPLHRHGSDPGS

A word on the IC50: it is the concentration needed to halve the response being measured. The low end stands for higher potency, the high end for lower potency. Take `Oc1ccc(C(F)(F)F)cc1CNCC12CC3CC(CC(C3)C1)C2`: the half-maximal inhibitory concentration (IC50) with Plasmodium falciparum [1] was found to be 0.1 µM; in the data set on Plasmodium falciparum [2], 0.012 µM. The selectivity ratio in data set [3] was above 500. Further, the Activity entry in the data set with THP-1 is given as “Non-toxic”.

Consider `Oc1cccc(F)c1CNCC12CC3CC(CC(C3)C1)C2`, for which the half-maximal inhibitory concentration (IC50) in the data set with Plasmodium falciparum [1] worked out at 0.028 µM; with Plasmodium falciparum [2], 0.008 µM.

With `COc1cccc(F)c1CNCC12CC3CC(CC(C3)C1)C2`, the IC50 in the data set with Plasmodium falciparum [1] is above 2 µM; with Plasmodium falciparum [2], 1.1 µM.

For orientation: fraction unbound means the share of the substance not bound to proteins or other matrix. A lower fraction unbound goes with little free substance. The solubility is the dissolved amount per volume that the medium holds. The low end stands for little dissolved substance, the high end for much dissolved substance. The term logD denotes lipophilicity at a set pH, counting ionised and neutral species. A low value points to a more hydrophilic compound. As a reminder, the inhibition is the drop in the measured response relative to a control, in per cent. A low value points to a response near the control. As to `Oc1ccc(Cl)cc1CNCC12CC3CC(CC(C3)C1)C2`, the fraction unbound in data set [4] came out at 0.004. Further, in [5], the concentration in solution (solubility) was 43 µM (≈ 13.2 µg/mL). Also, the IC50 is 0.005 µM in the data set with Plasmodium falciparum [1] and below 0.004 µM with Plasmodium falciparum [2]. The CLH with Liver microsome is 80 µL/min. The selectivity ratio in data set [3] is 5290. The Activity entry with THP-1 is recorded as “Non-toxic”. This compound also yielded a log distribution coefficient (logD) in data set [6] of 4. Further, in data set [7], the hepatocyte CLint at 1 µM is 208 µL/min/1e6 cells. This compound registered an inhibition at 11.1 µM at hERG (KCNH2) of 26.8%.

Take `Cc1ccc(O)c(CNCC23CC4CC(CC(C4)C2)C3)c1`: in data set [4], the fraction unbound was 0.031. The amount in solution in data set [5] (solubility) came to 97 µM (≈ 27.7 µg/mL). Moreover, the half-inhibitory concentration (IC50) in the data set on Plasmodium falciparum [1] was determined as 0.043 µM; in the data set on Plasmodium falciparum [2] it was 0.015 µM. This compound also displayed a CLH with Liver microsome of 93 µL/min. The selectivity ratio in [3] is above 1160. Also, the Activity entry in the data set on THP-1 is on record as “Non-toxic”. For the same compound, the log distribution coefficient (logD) in [6] was 3.3. Besides, the hepatocyte CLint at 1 µM in data set [7] was found to be 134 µL/min/1e6 cells. Besides, on hERG (KCNH2), the inhibition at 11.1 µM amounted to 28.3%.

Regarding `c1ccc(CNCC23CC4CC(CC(C4)C2)C3)cc1`, the concentration for half-maximal inhibition (IC50) with Plasmodium falciparum [1] and with Plasmodium falciparum [2] was above 2 µM each time.

For `CCNCc1ccc(C)cc1O`, the IC50 in the data set with Plasmodium falciparum [1] and in the data set with Plasmodium falciparum [2] was above 2 µM in each case.

With `CC(NCC12CC3CC(CC(C3)C1)C2)c1cc(Br)ccc1O` (stereo not drawn), the IC50 is 0.041 µM in the data set with Plasmodium falciparum [1] and 0.012 µM with Plasmodium falciparum [2]. For the same compound, the selectivity ratio in data set [3] is above 1220. Also, the Activity entry with THP-1 was “Non-toxic”.

In turn, `Oc1c(F)cc(Br)cc1CNCC12CC3CC(CC(C3)C1)C2` had a free fraction (fraction unbound) in data set [4] of 0.005. The compound also displayed a solubility in data set [5] of 4 µM (≈ 1.47 µg/mL). Also, the figures for the half-maximal inhibitory concentration (IC50) in the data set with Plasmodium falciparum [1] and in the data set with Plasmodium falciparum [2] were 0.014 µM and below 0.004 µM, respectively. The CLH in the data set on Liver microsome turned out to be 92 µL/min. Further, the selectivity ratio in data set [3] is above 3330. The Activity entry in the data set on THP-1 was “Non-toxic”. In data set [6], this compound displayed a logD of 3.7. Besides, in data set [7], the hepatocyte CLint at 1 µM was found to be 162 µL/min/1e6 cells. This compound registered an inhibition at 11.1 µM against hERG (KCNH2) of 9.2%.

Regarding `CN(Cc1ccccc1O)CC12CC3CC(CC(C3)C1)C2`, the figures for the IC50 with Plasmodium falciparum [1] and in the data set on Plasmodium falciparum [2] were above 0.5 µM and 0.27 µM, respectively.

For the compound `Cc1ccc(CNC2CCCCC2)c(O)c1`, the IC50 in the data set with Plasmodium falciparum [1] was determined as 0.73 µM; in the data set on Plasmodium falciparum [2], 0.13 µM.

As to `Cc1ccc(CNCC2CC2)c(O)c1`, the IC50 amounted to 1.4 µM with Plasmodium falciparum [1] and 0.52 µM in the data set with Plasmodium falciparum [2].

On to `Oc1ccc(Br)cc1CNCC12CC3CC(CC(C3)C1)C2`, for which the IC50 in the data set with Plasmodium falciparum [1] is 0.007 µM; in the data set with Plasmodium falciparum [2], below 0.004 µM. The selectivity ratio in data set [3] turned out to be 4780. Further, in the data set on THP-1, the Activity result is “Non-toxic”.

`COc1ccc(CNCC23CC4CC(CC(C4)C2)C3)c(O)c1` registered an unbound share (fraction unbound) in data set [4] of 0.044. The same compound yielded a solubility in data set [5] of 446 µM (≈ 134 µg/mL). For the same compound, the half-inhibitory concentration (IC50) in the data set with Plasmodium falciparum [1] worked out at 0.022 µM; in the data set on Plasmodium falciparum [2], 0.006 µM. Further, the CLH in the data set with Liver microsome is 59 µL/min. The compound further returned a logD in data set [6] of 2.7. Also, the hepatocyte CLint at 1 µM in data set [7] came out at 391 µL/min/1e6 cells. The inhibition at 11.1 µM at hERG (KCNH2) is 46.2%.

Regarding `Oc1cc(Cl)cc(Cl)c1CNCC12CC3CC(CC(C3)C1)C2`, the concentration for half-maximal inhibition (IC50) in the data set on Plasmodium falciparum [1] was 0.008 µM; in the data set on Plasmodium falciparum [2], below 0.004 µM. The selectivity ratio in data set [3] was above 6250. In the data set with THP-1, the Activity entry was “Non-toxic”.

For `Oc1ccccc1CNCC12CC3CC(CC(C3)C1)C2`, the values for the IC50 with Plasmodium falciparum [1] and with Plasmodium falciparum [2] were 0.072 µM and 0.01 µM, respectively.

In the case of `O=C1C(O)=C([C@H]2CC[C@H](c3ccc(Cl)cc3)CC2)C(=O)c2ccccc21` [ATOVAQUONE], the IC50 in the data set on Plasmodium falciparum [2] stood at 0.0023 µM.

For the compound `Cc1ccc(O)c(CNCC23CC4CC(CC(C4)C2)C3)n1`, in [4], the fraction unbound was 0.122. This compound showed a solubility in data set [5] of 237 µM (≈ 67.9 µg/mL). In addition, the half-inhibitory concentration (IC50) in the data set on Plasmodium falciparum [1] stood at 0.032 µM; with Plasmodium falciparum [2] it was 0.0077 µM. The same compound displayed a CLH in the data set with Liver microsome of 13 µL/min. Further, in data set [3], the selectivity ratio is above 1560. In the data set on THP-1, the Activity result is “Non-toxic”. Also, the pH-dependent lipophilicity (logD) in data set [6] came to 3. The hepatocyte CLint at 1 µM in data set [7] is 49 µL/min/1e6 cells. This compound also displayed an inhibition at 11.1 µM on hERG (KCNH2) of 7.9%.

As to `O=C(NCC12CC3CC(CC(C3)C1)C2)c1ccccc1O`, the results for the IC50 in the data set on Plasmodium falciparum [1] and with Plasmodium falciparum [2] were above 0.5 µM and 0.41 µM, respectively.

`C[C@@H]1CC[C@H]2[C@@H](C)C(=O)O[C@@H]3O[C@@]4(C)CC[C@@H]1[C@]32OO4` [ARTEMISININ] showed an IC50 with Plasmodium falciparum [1] of 0.007 µM.

Consider `Cc1ccc(CNCC23CC4CC(CC(C4)C2)C3)c(O)c1`, for which the IC50 with Plasmodium falciparum [1] is 0.006 µM; with Plasmodium falciparum [2] it was below 0.004 µM.

As for `Cc1ccc(CNC2C3CC4CC(C3)CC2C4)c(O)c1` (stereo not drawn), the IC50 in the data set on Plasmodium falciparum [1] worked out at 0.043 µM; with Plasmodium falciparum [2], 0.015 µM.
